Patent publication US5516790A, “Synthesis and application of alkyl-substituted dibenzofurans as antitumorigenic agents” (Texas A&M University System Technology Licensing Office, priority 1994, dated 1996)

Experiments:
[1] = tested on: female rat uterus; assay: Antiestrogenic effect on uterine wet weight, immature female Sprague-Dawley rats (Example 8); format: in vivo
[2] = tested on: estrogen receptor (ER); assay: Uterine estrogen receptor levels, hydroxyapatite assay (Example 8); format: in vivo, female Sprague-Dawley rats; conditions: for ED40-60 for Inhibition, ERc / ED40-60 for Inhibition, ERn: cotreatment with 17β-estradiol
Procedure: A second group of animals was similarly treated with corn oil, TCDD, MCDF, or TCDD plus MCDF, all administered in corn oil at 10 ml/kg and terminated 72 hours later.
(§1) The animals were terminated by cervical dislocation. Livers were perfused with ice-cold TEDG buffer (10 mM Tris-HCl, 1.5 mM EDTA-4Na, 1 mM dithiothreitol, 10% glycerol (v/v), pH 7.4). Following perfusion in situ, livers were removed, weighed, and homogenized in ice-cold TEDG buffer. Uteri were also removed, weighed, and homogenized in ice-cold buffer. The homogenates were then centrifuged at 800×g ([…]) for 15 minutes and the nuclear pellets were stored at -80° C. The supernatants were further centrifuged at 180,000× g for 1.5 hours. The cytosolic supernatant was also stored at -80° C. Estrogen and progesterone receptor levels were determined within 7 days.
(§2) Estrogen (ER) and progesterone (PR) receptor levels were determined by the hydroxyapatite assay as described by Clark et al. (J. Steroid Biochem. 16:323-328, 1982) and incorporated herein by reference. […] Following the incubations, samples were counted and specific binding was calculated by subtraction of nonspecific from total binding. Assuming one steroid molecule binds to one estrogen/progesterone receptor, the number of moles of receptor can be calculated given the specific activity of the radioligand. The data presented in Tables 1 through 6 are means ± SD using at least four animals per treatment group. Significant differences were determined by analysis of variance.

[3] = tested on: progesterone receptor (PR); assay: Uterine progesterone receptor levels, hydroxyapatite assay (Example 8); format: in vivo, female Sprague-Dawley rats; conditions: for ED40-60 for Inhibition, PRc / ED40-60 for Inhibition, PRn: cotreatment with 17β-estradiol
Procedure: as §1, §2

[4] = Table 3: 50 μmol/kg + E-2 (2 × 10 μg/rat)
[5] = Table 3: compound alone, 50 μmol/kg (17β-estradiol: 2 × 10 μg/rat)
[6] = 150 μmol/kg + E-2 (2 × 10 μg/rat), run B
[7] = compound alone, 150 μmol/kg (17β-estradiol: 2 × 10 μg/rat), run B
[8] = dose-response, 2 μmol/kg + 17β-estradiol (2 × 10 μg/rat)
[9] = dose-response, 10 μmol/kg + 17β-estradiol (2 × 10 μg/rat)
[10] = dose-response, 25 μmol/kg + 17β-estradiol (2 × 10 μg/rat)
[11] = dose-response, 50 μmol/kg + 17β-estradiol (2 × 10 μg/rat)
[12] = Table 2: 50 μmol/kg + E-2 (2 × 10 μg/rat)
[13] = Table 2: compound alone, 50 μmol/kg (17β-estradiol: 2 × 10 μg/rat)

SMILES	Uterine Wet Weight [1, 4] [% body wt]	Uterine Wet Weight [1, 5] [% body wt]	Estrogen Receptor Levels, Cytosolic [2, 4] [fmol/mg protein]	Estrogen Receptor Levels, Nuclear [2, 4] [fmol/mg protein]	Estrogen Receptor Levels, Cytosolic [2, 5] [fmol/mg protein]	Estrogen Receptor Levels, Nuclear [2, 5] [fmol/mg protein]	Progesterone Receptor Levels, Cytosolic [3, 4] [fmol/mg protein]	Progesterone Receptor Levels, Nuclear [3, 4] [fmol/mg protein]	Progesterone Receptor Levels, Cytosolic [3, 5] [fmol/mg protein]	Progesterone Receptor Levels, Nuclear [3, 5] [fmol/mg protein]	Uterine Wet Weight [1, 8] [% body wt]	Uterine Wet Weight [1, 9] [% body wt]	Uterine Wet Weight [1, 10] [% body wt]	Uterine Wet Weight [1, 11] [% body wt]	ED40-60 for Inhibition, ERc [2] [µmol/kg]	ED40-60 for Inhibition, ERn [2] [µmol/kg]	Estrogen Receptor Levels, Cytosolic [2, 8] [fmol/mg protein]	Estrogen Receptor Levels, Nuclear [2, 8] [fmol/mg protein]	Estrogen Receptor Levels, Cytosolic [2, 9] [fmol/mg protein]	Estrogen Receptor Levels, Nuclear [2, 9] [fmol/mg protein]	also measured
Cc1cc2c(cc1Cl)oc1cc(Cl)c(Cl)cc12	0.237 ± 0.007	0.138 ± 0.026	85.7 ± 4.3	25.7 ± 1.3	113.9 ± 5.7	47.8 ± 2.4	607 ± 36	204 ± 12	554 ± 33	177 ± 11	–	–	–	–	–	–	–	–	–	–	–
CCCc1cc(Cl)cc2c1oc1cc(Cl)cc(Cl)c12 [6-n-Propyl-1,3,8-triCDF]	–	–	–	–	–	–	–	–	–	–	–	–	–	–	–	–	–	–	–	–	Uterine Wet Weight [1, 6]: 0.240 ± 0.019 % body wt; Uterine Wet Weight [1, 7]: 0.118 ± 0.008 % body wt; Estrogen Receptor Levels, Cytosolic [2, 6]: 169.4 ± 6.0 fmol/mg protein; Estrogen Receptor Levels, Nuclear [2, 6]: 33.7 ± 1.7 fmol/mg protein; Estrogen Receptor Levels, Cytosolic [2, 7]: 86.4 ± 8.1 fmol/mg protein; Estrogen Receptor Levels, Nuclear [2, 7]: 35.4 ± 1.8 fmol/mg protein; Progesterone Receptor Levels, Cytosolic [3, 6]: 1838 ± 62 fmol/mg protein; Progesterone Receptor Levels, Nuclear [3, 6]: 408 ± 29 fmol/mg protein; Progesterone Receptor Levels, Cytosolic [3, 7]: 740 ± 71 fmol/mg protein; Progesterone Receptor Levels, Nuclear [3, 7]: 294 ± 21 fmol/mg protein
Cc1cc2c(cc1Br)oc1cc(Br)c(Br)cc12	0.259 ± 0.020	0.153 ± 0.003	133.3 ± 6.7	80.0 ± 4.8	128.2 ± 7.7	64.3 ± 4.6	505 ± 35	221 ± 15	362 ± 22	270 ± 16	–	–	–	–	–	–	–	–	–	–	–
Cc1cc2c(cc1Cl)oc1c(Cl)c(Cl)c(Cl)cc12 [8-Methyl-2,3,4,7-tetraCDF, 8-Methyl-2,3,4,7-tetrachlorodibenzofuran]	0.245 ± 0.006	0.094 ± 0.006	107.2 ± 5.4	43.7 ± 2.2	66.8 ± 3.3	30.9 ± 1.6	725 ± 51	360 ± 25	616 ± 43	161 ± 13	0.179 ± 0.009	0.201 ± 0.008	0.181 ± 0.002	0.172 ± 0.005	10	25	183.4 ± 9.2	83.2 ± 4.2	151.9 ± 9.1	82.8 ± 5.0	Estrogen Receptor Levels, Cytosolic [2, 10]: 137.4 ± 6.9 fmol/mg protein; Estrogen Receptor Levels, Nuclear [2, 10]: 69.0 ± 4.1 fmol/mg protein; Estrogen Receptor Levels, Cytosolic [2, 11]: 114.9 ± 5.8 fmol/mg protein; Estrogen Receptor Levels, Nuclear [2, 11]: 69.2 ± 4.2 fmol/mg protein; ED40-60 for Inhibition, PRc [3]: 10 µmol/kg; ED40-60 for Inhibition, PRn [3]: 10 µmol/kg; Progesterone Receptor Levels, Cytosolic [3, 8]: 2167 ± 152 fmol/mg protein; Progesterone Receptor Levels, Nuclear [3, 8]: 866 ± 52 fmol/mg protein; Progesterone Receptor Levels, Cytosolic [3, 9]: 1670 ± 117 fmol/mg protein; Progesterone Receptor Levels, Nuclear [3, 9]: 701 ± 35 fmol/mg protein; Progesterone Receptor Levels, Cytosolic [3, 10]: 1405 ± 98 fmol/mg protein; Progesterone Receptor Levels, Nuclear [3, 10]: 697 ± 56 fmol/mg protein; Progesterone Receptor Levels, Cytosolic [3, 11]: 1098 ± 88 fmol/mg protein; Progesterone Receptor Levels, Nuclear [3, 11]: 514 ± 41 fmol/mg protein
Cc1cc2c(cc1Cl)oc1cc(Cl)cc(Cl)c12 [8-Methyl-1,3,7-triCDF, 8-Methyl-1,3,7-trichlorodibenzofuran]	–	–	–	–	–	–	–	–	–	–	–	–	–	–	–	–	–	–	–	–	Uterine Wet Weight [1, 12]: 0.181 ± 0.007 % body wt; Uterine Wet Weight [1, 13]: 0.127 ± 0.019 % body wt; Estrogen Receptor Levels, Cytosolic [2, 12]: 119.0 ± 14.3 fmol/mg protein; Estrogen Receptor Levels, Nuclear [2, 12]: 51.1 ± 7.4 fmol/mg protein; Estrogen Receptor Levels, Cytosolic [2, 13]: 72.8 ± 8.3 fmol/mg protein; Estrogen Receptor Levels, Nuclear [2, 13]: 26.4 ± 5.1 fmol/mg protein; Progesterone Receptor Levels, Cytosolic [3, 12]: 1025 ± 151 fmol/mg protein; Progesterone Receptor Levels, Nuclear [3, 12]: 952 ± 113 fmol/mg protein; Progesterone Receptor Levels, Cytosolic [3, 13]: 503 ± 63 fmol/mg protein; Progesterone Receptor Levels, Nuclear [3, 13]: 795 ± 92 fmol/mg protein
Cc1cc2c(cc1Cl)oc1cc(Cl)c(Cl)cc12 [8-methyl-2,3,7-triCDF, 8-Methyl-2,3,7-Trichlorodibenzofuran]	–	–	–	–	–	–	–	–	–	–	0.192 ± 0.013	0.211 ± 0.019	0.192 ± 0.004	0.224 ± 0.012	2	10	131.8 ± 6.6	90.2 ± 5.4	125.3 ± 6.3	76.8 ± 3.8	Estrogen Receptor Levels, Cytosolic [2, 10]: 117.5 ± 5.9 fmol/mg protein; Estrogen Receptor Levels, Nuclear [2, 10]: 72.8 ± 3.6 fmol/mg protein; Estrogen Receptor Levels, Cytosolic [2, 11]: 107.1 ± 5.4 fmol/mg protein; Estrogen Receptor Levels, Nuclear [2, 11]: 67.3 ± 4.0 fmol/mg protein; ED40-60 for Inhibition, PRc [3]: 2 µmol/kg; ED40-60 for Inhibition, PRn [3]: 10 µmol/kg; Progesterone Receptor Levels, Cytosolic [3, 8]: 1673 ± 117 fmol/mg protein; Progesterone Receptor Levels, Nuclear [3, 8]: 835 ± 50 fmol/mg protein; Progesterone Receptor Levels, Cytosolic [3, 9]: 1596 ± 112 fmol/mg protein; Progesterone Receptor Levels, Nuclear [3, 9]: 685 ± 62 fmol/mg protein; Progesterone Receptor Levels, Cytosolic [3, 10]: 1461 ± 102 fmol/mg protein; Progesterone Receptor Levels, Nuclear [3, 10]: 631 ± 37 fmol/mg protein; Progesterone Receptor Levels, Cytosolic [3, 11]: 856 ± 60 fmol/mg protein; Progesterone Receptor Levels, Nuclear [3, 11]: 605 ± 66 fmol/mg protein
